Results from patent publication US20240316051A1, “A PHARMACEUTICAL COMBINATION AND USE THEREOF” (Ascentage Pharma (Suzhou) Co., Ltd., priority 2021, published 2024).

What was measured:
Type in all cases: in vivo, mice
[1] = test system: NCI-H28(X1) (BAP1mut, UHRF1high, TP53WT, CDKN2Adel, FGFRlow, NF2WT) subcutaneous mesothelioma xenograft; test: NCI-H28(X1) subcutaneous mesothelioma xenograft model (Example 23); conditions: Compound C 50 mg/kg orally every other day, Compound 73 100 mg/kg orally once per day, 28 days, alone or combined
Protocol: (§1) A subcutaneous xenograft tumor model of human tumor immunodeficient mice was established by cell inoculation: tumor cells in logarithmic growth phase were collected, counted, resuspended in 1×PBS, and the cell suspension concentration was adjusted to 2.5-5×10^7/mL. The tumor cells were inoculated subcutaneously in the right side of immunodeficient mice with a 1 ml syringe ([…]), 5-10×10^6/0.2 mL/mouse. All animal experiments were strictly in accordance with the specifications for the use and management of experimental animals in GenePharma Co., Ltd. and Suzhou Ascentage Pharma Co., Ltd. The calculation of relevant parameters refers to the Chinese NMPA “Guidelines for Non-Clinical Research Techniques of Cytotoxic Anti-tumor Drugs”.
(§2) Animal body weight and tumor size were measured twice weekly during the experiment. The state of the animal and the presence or absence of death were observed every day. The growth of tumor and the effects of treatment on normal behavior of animals were monitored routinely, specifically involving experimental animal activity, feeding and drinking, weight gain or loss, eyes, clothing hair and other abnormalities. The deaths and clinical symptoms observed during the experiment were recorded in the raw data. All operations for administration and measurement of mouse body weight and tumor volume were performed in a clean bench. According to the requirements of the experimental protocol, after the end of the last administration, plasma and tumor tissues were collected, weighed and photographed. The plasma and tumor samples were frozen at −80° C. for ready-to-use.
(§3) Tumor volume (TV) is calculated as: TV=a×b^2/2, wherein a and b represent the length and width of the tumor to be measured, respectively.
(§4) The relative tumor volume (RTV) is calculated as: RTV=Vt/V1, wherein V1 is the tumor volume at the start of grouping and administration, and Vt is the tumor volume measured on the t day after administration.
The evaluation index of anti-tumor activity is the relative tumor proliferation rate T/C (%), and the calculation formula thereof is: relative tumor proliferation rate T/C (%)=(TRTV/CRTV)×100%, TRTV is the RTV of treatment group, CRTV is the RTV of solvent control group. […]
According to the description by Clarke R., Issues in experimental design and endpoint analysis in the study of experimental cytotoxic agents in vivo in breast cancer and other models [J]. Breast Cancer Research & Treatment, 1997, 46(2-3): 255-278, synergy analysis was evaluated using the following formula: synergy factor=((A/C)×(B/C))/(AB/C); A=RTV value of drug A alone group; B=RTV value of drug B alone group; C=RTV value of the solvent control group, and AB=RTV value of the A and B combination group. […]

[2] = test system: NCI-H226 (BAP1mut, CDKN2Adel, FGFR high) xenograft; test: NCI-H226 xenograft model (Examples 18-19); conditions: Compound 73 50 mg/kg, orally, once per day, 35 days
Protocol: as §1
as §2, with “All operations for administration and measurement of mouse body weight and tumor volume were performed in a clean bench. According to the requirements of the experimental protocol, after the end of the last administration, plasma and tumor tissues were collected, weighed and photographed.” left out
as §3
The relative tumor volume (RTV) is calculated as: RTV=Vt/V1, wherein V1 is the tumor volume at the start of grouping and administration, and Vt is the tumor volume measured on the t day after administration. […]
Use of mRECIST (Gao et al., 2015) measured tumor responses included stable disease (SD), partial tumor regression (PR), and complete regression (CR), determined by comparing tumor volume change at day t to its baseline: tumor volume change (%)=(Vt−V1)/V1. […] For each time t, the average of tumor volume changes from t=1 to t was also calculated. […] Body weight of animals were monitored simultaneously. […]

LnCap prostate xenograft = test: Subcutaneous LnCap prostate xenograft model (Example 25); conditions: day 17
Protocol: as §1, §2, §3, §4
(§5) The evaluation index of anti-tumor activity is the relative tumor proliferation rate T/C (%), and the calculation formula thereof is: relative tumor proliferation rate T/C (%)=(TRTV/CRTV)×100%, TRTV is the RTV of treatment group, CRTV is the RTV of solvent control group.
(§6) A dose of drug is considered to be severely toxic if the body weight of mouse is reduced by more than 20% or the number of drug-related deaths exceeds 20%.
(§7) According to the description by Clarke R., Issues in experimental design and endpoint analysis in the study of experimental cytotoxic agents in vivo in breast cancer and other models [J]. Breast Cancer Research & Treatment, 1997, 46(2-3): 255-278, synergy analysis was evaluated using the following formula: synergy factor=((A/C)×(B/C))/(AB/C); A=RTV value of drug A alone group; B=RTV value of drug B alone group; C=RTV value of the solvent control group, and AB=RTV value of the A and B combination group.
In this experiment, subcutaneous LnCap prostate xenograft model was established to evaluate the anti-tumor effect of Compound 73 in combination with Compound C. The dosing regimen was as follows: • Compound C: 100 mg/kg, orally, every other day, for day 1-day 9; 50 mg/kg, orally, every other day, for day 10-day 28; • Compound 73: 100 mg/kg, orally, once per day, for a total of 28 days;
The dosing regimen of each drug in the dosing regimen for the combination is the same as the dosing regimen for the single drug, for a total of 28 days.

[3] = test system: BAP1 mut mesothelioma PDX model; test: BAP1 mut mesothelioma PDX model (Examples 15-17); conditions: orally, once per day, 28 days
Protocol: as §1, §2, §3, §4, §5, §6, §7
In this experiment, a BAP1 mut mesothelioma PDX model (Lide Biotech) was established to evaluate the anti-tumor effect of Compound 73. The dosing regimen was as follows: • Compound 73: 50 mg/kg, orally, once per day, for a total of 28 days; • Compound 73: 100 mg/kg, orally, once per day, for a total of 28 days;
In this experiment, a BAP1 mut mesothelioma PDX model (Lide Biotech) was established to evaluate the anti-tumor effect of Compound 73 in combination with Compound A-1. […]

For `CC(C)N1Cc2cc(C(F)(F)F)ncc2-c2cnc(NCc3c(F)ccc4c3CCO4)n3cnc(c23)C1=O` [Compound 73, 12-(((5-fluoro-2,3-dihydrobenzofuran-4-yl)methyl)amino)-4-isopropyl-7-(trifluoromethyl)-4,5-dihydro-3H-2,4,8,11,12a-pentaazabenzo[4,5]cycloocta[1,2,3-cd]inden-3-one], the “T/C (%) @ D 29” value [1] was 33.06%, the “RTV@ D 29” value ([1]; mean ± SEM) was 5.05 ± 0.41 and the “T/C (%)” value [2] was 48.6%. The “tumor response (mRECIST)” value [2] was “all the mice achieving stable disease (SD)”, the “RTV@ D 17” value (LnCap prostate xenograft; LnCap xenograft, Compound 73 100 mg/kg orally once per day, Compound C 100 mg/kg/50 mg/kg orally every other day) was 4.09 ± 0.75 and the “T/C(%) @ D 17” value (LnCap prostate xenograft; LnCap xenograft, Compound 73 100 mg/kg, Compound C 100 mg/kg/50 mg/kg) was 91.30%. The T/C value (LnCap prostate xenograft; Compound C 100 mg/kg every other day day 1-9 then 50 mg/kg day 10-28, Compound 73 100 mg/kg once per day, orally, alone or combined) was 91.30%, the “T/C (%)” value ([3]; Compound 73 50 mg/kg, end of study) was 69.7% and the “T/C (%)” value ([3]; Compound 73 100 mg/kg, 100 mg/kg) was 60%. For the same molecule, the “antitumor activity (in words)” value ([3]; Compound 73 single agent, 50 and 100 mg/kg) was “dose-dependent antitumor activity”.
